The text below walks through data of US12606528B2, “Methods and materials for inhibiting NF-kB activity” (University of Pittsburgh - Of the Commonwealth System of …, priority 2019, dated 2026).

Test [1] deals with TNF release. Kind of test: TNF assay: TNF release from LPS-stimulated human PBMCs (TNF ELISA). In kind it is cell-based. The settings on record: PBMC, read-out: IC50 (TNF assay). Put shortly: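 Human PBMCs at 10k/well pretreated with compound dilutions 2 h, then stimulated with LPS (10 ng/mL) for 18 h. TNF in supernatants quantified by ELISA; IC50 for inhibition of TNF release fitted from concentration–response.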
A general note: In an ELISA, binding on a coated surface is turned into a signal by an enzyme label.

Test [2] concerns NF-κB. Kind of test: NF-κB assay: THP1-NF-κB-LUC cells, LPS-stimulated secreted luciferase. The class given is cell-based. Particulars: THP1-NF-κB-LUC cells, read-out: IC50 (NF-κB assay). Put shortly:
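THP1-NF-κB-LUC cells (25k/well) were pretreated with compounds for 2 h, then stimulated with LPS (10 ng/mL) for 18 h. Secreted luciferase was measured and normalized to vehicle, and IC50 was fitted from the concentration series.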

Setting [3] is: LPS-stimulated human PBMCs, TNF ELISA.
[4] abbreviates: human PBMCs, compounds 2 hours before LPS (10 ng/ml) for 18 hours, supernatant TNF ELISA.
Where [5] appears, read: compounds 2 hours before LPS (10 ng/mL) for 18 hours, secreted luciferase.

Where two headings read alike, the source gives them in different places.

Consider `CCCS(=O)(=O)c1snc(-c2ccc(F)cc2)c1S(=O)(=O)c1ccc(Cl)cc1` [BC19682], for which the IC50 was < 0.1 µM in test [1] (setting [3]) and 0.1 to 1 µM in test [2] (LPS-stimulated).

`O=C1CCOc2c(cc(Br)cc2S(=O)(=O)Nc2ccc(Cl)cc2)N1` [BC19685]: the IC50 in test [1] (setting [3]) was 1 to 10 µM; in test [2] (LPS-stimulated), < 0.1 µM.

For `CCc1ccc(NS(=O)(=O)c2cc(Br)cc3c2OCCC(=O)N3)cc1` [BC19686], the IC50 in test [1] (setting [3]) is > 10 µM; in test [2] (LPS-stimulated), < 0.1 µM.

In the case of `CC(C)c1ccc(NS(=O)(=O)c2cc(Br)cc3c2OCCC(=O)N3)cc1` [BC19687], the IC50 was > 10 µM in test [1] (setting [3]) and < 0.1 µM in test [2] (LPS-stimulated).

Consider `COc1ccc(NS(=O)(=O)c2cc(Br)cc3c2OCCC(=O)N3)cc1Cl` [BC19688], for which the half-maximal inhibitory concentration (IC50) in test [1] (setting [3]) and in test [2] (LPS-stimulated) was > 10 µM throughout.

Take `O=C1CCOc2cc(S(=O)(=O)Nc3ccccc3)c(Br)cc2N1` [BC19689]: the IC50 is 1 to 10 µM in test [1] (setting [3]) and > 10 µM in test [2] (LPS-stimulated).

Regarding `CCc1ccc(NS(=O)(=O)c2cc3c(cc2Br)NC(=O)CCO3)cc1` [BC19690], the IC50 in test [1] (setting [3]) and in test [2] (LPS-stimulated) was > 10 µM each time.

Consider `COc1ccc(NS(=O)(=O)c2cc3c(cc2Br)NC(=O)CCO3)cc1` [BC19692], for which the IC50 in test [1] (setting [3]) and in test [2] (LPS-stimulated) was > 10 µM in each case.

On to `O=C1CCOc2cc(S(=O)(=O)Nc3ccc(F)cc3F)c(Br)cc2N1` [BC19693], for which the IC50 in test [1] (setting [3]) and in test [2] (LPS-stimulated) was > 10 µM each time.

For the molecule `COc1ccc(NS(=O)(=O)c2cc3c(cc2Br)NC(=O)CCO3)cc1Cl` [BC19694], the IC50 in test [1] (setting [3]) and in test [2] (LPS-stimulated) was > 10 µM in each case.

Consider `N#Cc1ccc(NS(=O)(=O)c2cc3c(cc2Br)NC(=O)CCO3)cc1` [BC19695], for which the IC50 in test [1] (setting [3]) is 1 to 10 µM; in test [2] (LPS-stimulated), > 10 µM.

On to `CC1Oc2cc(S(=O)(=O)Nc3ccc(Cl)cc3)c(Cl)cc2NC1=O` (stereo not drawn) [BC19696], for which the values for the IC50 in test [1] (setting [4]) and in test [2] (setting [5]) were > 10 µM and 0.1 to 1 µM, respectively.

Take `CC1Oc2c(cc(Cl)cc2S(=O)(=O)Nc2ccc(Cl)cc2)NC1=O` (stereo not drawn) [BC19697]: the IC50 in test [1] (setting [4]) was > 10 µM; in test [2] (setting [5]), < 0.1 µM.

As for `CC1Oc2cc(S(=O)(=O)Nc3ccc(F)c(F)c3)c(Cl)cc2NC1=O` (stereo not drawn) [BC19698], the IC50 was > 10 µM in test [1] (setting [4]) and < 0.1 µM in test [2] (setting [5]).

With `CC1Oc2c(cc(Cl)cc2S(=O)(=O)Nc2ccc(F)c(F)c2)NC1=O` (stereo not drawn) [BC19699], the IC50 in test [1] (setting [4]) is > 10 µM; in test [2] (setting [5]), < 0.1 µM.

On to `Cc1ccc(NS(=O)(=O)c2cc3c(cc2Cl)NC(=O)C(C)O3)cc1F` (stereo not drawn) [BC19700], for which the IC50 in test [1] (setting [4]) was > 10 µM; in test [2] (setting [5]) it was < 0.1 µM.

For `Cc1ccc(NS(=O)(=O)c2cc(Cl)cc3c2OC(C)C(=O)N3)cc1F` (stereo not drawn) [BC19701], the IC50 in test [1] (setting [4]) is > 10 µM; in test [2] (setting [5]) it was < 0.1 µM.

For the molecule `CCc1ccc(NS(=O)(=O)c2cc3c(cc2Cl)NC(=O)C(C)O3)cc1` (stereo not drawn) [BC19702], the IC50 is > 10 µM in test [1] (setting [4]) and < 0.1 µM in test [2] (setting [5]).

Consider `CCc1ccc(NS(=O)(=O)c2cc(Cl)cc3c2OC(C)C(=O)N3)cc1` (stereo not drawn) [BC19703], for which the IC50 in test [1] (setting [4]) was > 10 µM; in test [2] (setting [5]) it was < 0.1 µM.

For the molecule `CC1Oc2c(cc(Cl)cc2S(=O)(=O)Nc2ccc(C(C)C)cc2)NC1=O` (stereo not drawn) [BC19705], the IC50 in test [1] (setting [4]) was > 10 µM; in test [2] (setting [5]) it was < 0.1 µM.

Consider `COc1ccc(NS(=O)(=O)c2cc3c(cc2Cl)NC(=O)C(C)O3)cc1` (stereo not drawn) [BC19706], for which the IC50 was > 10 µM in test [1] (setting [4]) and < 0.1 µM in test [2] (setting [5]).

`COc1ccc(NS(=O)(=O)c2cc(Cl)cc3c2OC(C)C(=O)N3)cc1` (stereo not drawn) [BC19707]: the 50% inhibitory concentration (IC50) in test [1] (setting [4]) was > 10 µM; in test [2] (setting [5]), < 0.1 µM.

For `Cc1ccc(NS(=O)(=O)c2cc3c(cc2Cl)NC(=O)C(C)O3)cc1Cl` (stereo not drawn) [BC19708], the IC50 was > 10 µM in test [1] (setting [4]) and < 0.1 µM in test [2] (setting [5]).

With `CC1Oc2cc(S(=O)(=O)Nc3ccc(F)cc3F)c(Cl)cc2NC1=O` (stereo not drawn) [BC19709], the results for the IC50 in test [1] (setting [4]) and in test [2] (setting [5]) were > 10 µM and < 0.1 µM, respectively.

For the molecule `CC1Oc2c(cc(Cl)cc2S(=O)(=O)Nc2ccc(F)cc2F)NC1=O` (stereo not drawn) [BC19710], the IC50 in test [1] (setting [4]) was > 10 µM; in test [2] (setting [5]), < 0.1 µM.

On to `CCc1cccc(NS(=O)(=O)c2cc3c(cc2Cl)NC(=O)C(C)O3)c1` (stereo not drawn) [BC19711], for which the IC50 in test [1] (setting [4]) was > 10 µM; in test [2] (setting [5]), < 0.1 µM.

Take `CCc1cccc(NS(=O)(=O)c2cc(Cl)cc3c2OC(C)C(=O)N3)c1` (stereo not drawn) [BC19712]: the IC50 in test [1] (setting [4]) is > 10 µM; in test [2] (setting [5]), < 0.1 µM.

Turning to `CC1Oc2cc(S(=O)(=O)Nc3cccc(F)c3)c(Cl)cc2NC1=O` (stereo not drawn) [BC19713], the IC50 lay in the range of 1 to 10 µM in test [1] (setting [4]) and 0.1 to 1 µM in test [2] (setting [5]).

`CC1Oc2c(cc(Cl)cc2S(=O)(=O)Nc2cccc(F)c2)NC1=O` (stereo not drawn) [BC19714]: the IC50 is 1 to 10 µM in test [1] (setting [4]) and < 0.1 µM in test [2] (setting [5]).

For the molecule `CC1Oc2cc(S(=O)(=O)Nc3cccc(Cl)c3)c(Cl)cc2NC1=O` (stereo not drawn) [BC19715], the values for the IC50 in test [1] (setting [4]) and in test [2] (setting [5]) were 1 to 10 µM and < 0.1 µM, respectively.

In the case of `CC1Oc2c(cc(Cl)cc2S(=O)(=O)Nc2cccc(Cl)c2)NC1=O` (stereo not drawn) [BC19716], the IC50 in test [1] (setting [4]) is 1 to 10 µM; in test [2] (setting [5]), < 0.1 µM.

With `Cc1ccc(NS(=O)(=O)c2cc3c(cc2Cl)NC(=O)C(C)O3)cc1` (stereo not drawn) [BC19717], the IC50 in test [1] (setting [4]) is > 10 µM; in test [2] (setting [5]), < 0.1 µM.

`Cc1ccc(NS(=O)(=O)c2cc(Cl)cc3c2OC(C)C(=O)N3)cc1` (stereo not drawn) [BC19718]: the IC50 in test [1] (setting [4]) was 1 to 10 µM; in test [2] (setting [5]) it was < 0.1 µM.

Regarding `CC1Oc2cc(S(=O)(=O)Nc3ccc(F)cc3Cl)c(Cl)cc2NC1=O` (stereo not drawn) [BC19719], the IC50 in test [1] (setting [4]) is > 10 µM; in test [2] (setting [5]), 0.1 to 1 µM.

In the case of `CC1Oc2c(cc(Cl)cc2S(=O)(=O)Nc2ccc(F)cc2Cl)NC1=O` (stereo not drawn) [BC19720], the IC50 is > 10 µM in test [1] (setting [4]) and < 0.1 µM in test [2] (setting [5]).

Take `CC1Oc2cc(S(=O)(=O)Nc3ccc(F)cc3)c(Cl)cc2NC1=O` (stereo not drawn) [BC19721]: the half-inhibitory concentration (IC50) in test [1] (setting [4]) is 1 to 10 µM; in test [2] (setting [5]), < 0.1 µM.

Regarding `CC1Oc2c(cc(Cl)cc2S(=O)(=O)Nc2ccc(F)cc2)NC1=O` (stereo not drawn) [BC19722], the IC50 in test [1] (setting [4]) is 1 to 10 µM; in test [2] (setting [5]), < 0.1 µM.

For the molecule `CN1CCN(C(=O)C2Cc3nc(-c4ccc(F)cc4)c(-c4ccc(F)cc4)nc3C2)CC1` [BC19723], the IC50 is > 10 µM in test [1] (setting [3]) and 0.1 to 1 µM in test [2] (LPS-stimulated).

Consider `CCC[S+]([O-])c1sc(-c2cccnc2)nc1S(=O)(=O)c1ccc(Cl)cc1` (stereo not drawn) [BC19724], for which the IC50 in test [1] (setting [3]) and in test [2] (LPS-stimulated) was 1 to 10 µM throughout.

For `CC(C)[S+]([O-])c1sc(-c2cccnc2)nc1S(=O)(=O)c1ccc(Cl)cc1` (stereo not drawn) [BC19725], the IC50 in test [1] (setting [3]) and in test [2] (LPS-stimulated) was > 10 µM each time.

As to `CC(C)Sc1snc(-c2ccc(F)cc2)c1S(=O)(=O)c1ccc(Cl)cc1` [BC19726], the IC50 in test [1] (setting [3]) and in test [2] (LPS-stimulated) was > 10 µM throughout.

On to `CC(C)[S+]([O-])c1snc(-c2ccc(F)cc2)c1S(=O)(=O)c1ccc(Cl)cc1` (stereo not drawn) [BC19727], for which the IC50 in test [1] (setting [3]) and in test [2] (LPS-stimulated) was 1 to 10 µM in each case.

On to `CC(C)S(=O)(=O)c1snc(-c2ccc(F)cc2)c1S(=O)(=O)c1ccc(Cl)cc1` [BC19728], for which the IC50 in test [1] (setting [3]) was 1 to 10 µM; in test [2] (LPS-stimulated), > 10 µM.

Regarding `CC1Oc2cc(S(=O)(=O)Nc3ccc(C#N)cc3)c(Cl)cc2NC1=O` (stereo not drawn) [BC19729], the IC50 was > 10 µM in test [1] (setting [4]) and 0.1 to 1 µM in test [2] (setting [5]).

In the case of `CC1Oc2c(cc(Cl)cc2S(=O)(=O)Nc2ccc(C#N)cc2)NC1=O` (stereo not drawn) [BC19730], the IC50 in test [1] (setting [4]) is > 10 µM; in test [2] (setting [5]), < 0.1 µM.

What is called IC50 is the concentration that gives 50% inhibition.
